Results taken from patent publication US10604529B2, “Fused imidazole compound having indoleamine 2,3-dioxygenase inhibitory activity” (SHENZHEN CHIPSCREEN BIOSCIENCES CO., LTD., priority 2016, dated 2020).

Experiments:
[1] = target: T1, IFN-γ-induced IDO enzyme in HeLa cells (Homo sapiens, UniProt P14902); experiment: Detection of IDO inhibitory activity at the cellular level (IFN-γ-induced HeLa cells); type: cell-based; settings: 48 hours; for inhibition at 1 µM: tested compound 1 μM, human IFN-γ 50 ng/ml, read-out: IDO Inhibitory Rate (%) (1 μM); for EC50: human IFN-γ induced, read-out: IDO EC50 (nM) at the Cellular Level (column head: IC50 (nM))
T1 construct: HeLa cells are human cervical cancer cell lines and can up-regulate the expression of endogenous IDO enzymes; endogenous in cells; host or cells: HeLa cells stimulated with human IFN-γ
T1 sequence (P14902 whole entry): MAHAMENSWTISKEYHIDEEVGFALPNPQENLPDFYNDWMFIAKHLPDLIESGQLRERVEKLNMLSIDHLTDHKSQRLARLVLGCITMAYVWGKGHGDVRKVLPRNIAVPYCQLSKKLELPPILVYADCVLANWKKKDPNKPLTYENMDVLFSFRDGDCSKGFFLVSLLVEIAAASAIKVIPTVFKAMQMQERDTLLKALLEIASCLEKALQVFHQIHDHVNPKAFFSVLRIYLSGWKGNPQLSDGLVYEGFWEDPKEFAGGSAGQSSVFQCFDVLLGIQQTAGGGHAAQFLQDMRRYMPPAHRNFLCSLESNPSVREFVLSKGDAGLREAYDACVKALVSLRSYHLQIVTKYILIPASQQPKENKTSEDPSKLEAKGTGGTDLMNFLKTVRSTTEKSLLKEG
Description: In the present disclosure, IFN-γ-induced IDO enzyme expression in HeLa cells were used as a model to detect the IDO enzymatic inhibitory activity of the compound at the cellular level. HeLa cells are human cervical cancer cell lines and can up-regulate the expression of endogenous IDO enzymes under the induction of human IFN-γ. The cell supernatant can be subjected to detection of the enzyme-catalyzed product kynurenine by adding the substrate L-tryptophan to the cell culture solution. […] Recombinant human IFN-γ cytokine purchased from Sangon Biotech, Phenol red-free DMEM for cell culture purchased from Gibco. […] The cells were further cultured for 48 hours and detected. (2) 200 μl of the supernatant from the culture well was pipetted, 40 μl of a pre-formulated 30% (w/v) trichloroacetic acid solution was added, allowed to react at 65° C. for 20 minutes, and then centrifuged at 12,000 rpm for 15 minutes. (3) 100 μl of the supernatant after centrifugation was pipetted and added into a 96-well plate, an equal volume of 2% p-dimethylaminobenzaldehyde in glacial acetic acid was added, and they were mixed well and allowed to stand at room temperature for 10 minutes. (4) A microplate reader (ELX800NB) was used to detect the color signal of each well, and the detection wavelength was 492 nm.

[2] = target: T2, Recombinant human IDO enzyme (IDO1 enzyme) (Homo sapiens, UniProt P14902); experiment: In vitro IDO enzymatic activity assay (kynurenine colour reaction, 492 nm); type: biochemical; settings: for inhibition at 0.2 µM: tested compound concentration 200 nM, recombinant human IDO1, read-out: IDO Enzymatic Inhibition Rate (%) (200 nM); for IC50: recombinant human IDO enzyme
T2 construct: purchased BPS Bioscience, USA
T2 sequence (P14902 whole entry): as above
Description: The basic principle of the in vitro IDO enzymatic activity detection is to use the IDO enzyme to metabolize the substrate L-tryptophan to produce the product kynurenine in an in vitro enzyme-catalyzed reaction system. The kynurenine is yellow in color reaction with p-dimethylaminobenzaldehyde in glacial acetic acid, and the absorbance value was measured at 492 nm on a microplate reader. The concentration of the product kynurenine in the sample is calculated by comparison to a standard curve of kynurenine with a known concentration.
Recombinant human IDO enzyme (IDO1 enzyme) was purchased from BPS Bioscience, USA.
(3) Control reactions were set up at the same time the detection reaction was carried out. including 0 inhibition positive control with no tested compound added and 0 enzyme negative control with no enzyme added. All tests were run in duplicate.
(4) After the enzymatic reaction was completed, 40 μl of a pre-formulated 30% (w/v) trichloroacetic acid solution was added, and reacted at 65° C. for 20 minutes, followed by centrifugation at 12,000 rpm for 15 minutes.
(5) 100 μl of the supernatant after centrifugation was pipetted and added to a 96-well plate. An equal volume of 2% p-dimethylaminobenzaldehyde in glacial acetic acid was added, well mixed, and allowed to stand at room temperature for 10 minutes.
(6) A microplate reader (ELX800NB) was used to detect the color signal of each well with a detection wavelength of 492 nm.
In addition, the enzymatic inhibition rates were calculated for the tested compounds of different concentration gradients, and then the enzymatic half maximal inhibitory concentration (IC50) was calculated using the IC50 calculator.
According to the above-mentioned method of experiment, the compound of the present disclosure was subjected to an in vitro IDO enzymatic IC50 assay using NLG919 as a positive control compound.

| Compound | inhibition at 1 µM [1] [%] | inhibition at 0.2 µM [2] [%] | EC50 [1] [nM] | IC50 [2] [nM] |
| --- | --- | --- | --- | --- |
| CN(CC(=O)N1CCC(C(O)CC2c3ccccc3-c3cncn32)CC1)c1ccc2c(c1)oc1ccccc12 (stereo not drawn) [Example 124, 2-(dibenzo[b,d]furan-3-yl(methyl)amino)-1-(4-(1-hydroxy-2(5H-imidazo[5,1-a]isoindol-5-yl)ethyl)piperidin-1-yl)ethyl-1-one] | 79 | – | – | – |
| O=C(COc1cccc(Cl)c1)N1CCC(C(O)CC2c3ccccc3-c3cncn32)CC1 (stereo not drawn) [Example 41, 2-(3-chlorophenoxy)-1-(4-(1-hydroxy-2-(5H-imidazo[5,1-a]isoindol-5-yl)ethyl)piperidin-1-yl)ethyl-1-one] | 99 | 92 | – | – |
| O=C(COc1ccc(F)c(Cl)c1)N1CCC(C(O)CC2c3ccccc3-c3cncn32)CC1 (stereo not drawn) [Example 39, 2-(3-chloro-4-fluorophenoxy)-1-(4-(1-hydroxy-2-(5H-imidazo[5,1-a]isoindol-5-yl)ethyl)piperidin-1-yl)ethyl-1-one] | 98 | 90 | – | – |
| O=C(COc1ncnc2[nH]cnc12)N1CCC(C(O)CC2c3ccccc3-c3cncn32)CC1 (stereo not drawn) [Example 33, 2-((7H-purin-6-yl)oxy)-1-(4-(1-hydroxy-2-(5H-imidazo[5,1-a]isoindol-5-yl)ethyl)piperidin-1-yl)ethyl-1-one] | – | 70 | – | – |
| O=C(COc1nc2ccccc2o1)N1CCC(C(O)CC2c3ccccc3-c3cncn32)CC1 (stereo not drawn) [Example 37, 2-(benzo[d]oxazolin-2-yloxy)-1-(4-(1-hydroxy-2-(5H-imidazo[5,1-a]isoindol-5-yl)ethyl)piperidin-1-yl)ethyl-1-one] | 97 | 83 | – | – |
| O=C(CNc1ccccc1)N1CCC(C(O)CC2c3ccccc3-c3cncn32)CC1 (stereo not drawn) [Example 85, 1-(4-(1-hydroxy-2-(5H-imidazo[5,1-a]isoindol-5-yl)ethyl)piperidin-1-yl)-2-(phenylamino)ethyl-1-one] | 84 | 65 | 312 | 144 |
| CN(CC(=O)N1CCC(C(O)CC2c3ccccc3-c3cncn32)CC1)c1ccc2ncccc2c1 (stereo not drawn) [Example 113, 1-(4-(1-hydroxy-2-(5H-imidazo[5,1-a]isoindol-5-yl)ethyl)piperidin-1-yl)-2-(methyl(quinolin-6-yl)amino)ethyl-1-one] | 74 | 75 | – | – |
| CN(CC(=O)N1CCC(C(O)CC2c3ccccc3-c3cncn32)CC1)c1cccc(Cl)c1 (stereo not drawn) [Example 63] | 99 | 90 | – | – |
| COc1cccc(N(C)CC(=O)N2CCC(C(O)CC3c4ccccc4-c4cncn43)CC2)c1 (stereo not drawn) [Example 102, 2-((3-methoxyphenyl)(methyl)amino)-1-(4-(1-hydroxy-2-(5H-imidazo[5,1-a]isoindol-5-yl)ethyl)piperidin-1-yl)ethyl-1-one] | 95 | 85 | – | – |
| O=C(COc1ccc2oc3ccccc3c2c1)N1CCC(C(O)CC2c3ccccc3-c3cncn32)CC1 (stereo not drawn) [Example 57, 2-(dibenzo[b,d]furan-2-yloxy)-1-(4-(1-hydroxy-2-(5H-imidazo[5,1-a]isoindol-5-yl)ethyl)piperidin-1-yl)ethyl-1-one] | 91 | 88 | – | – |
| O=C(COc1ccccc1)N1CCC(C(O)CC2c3ccccc3-c3cncn32)CC1 (stereo not drawn) [Example 7, 1-(4-(1-hydroxy-2-(5H-imidazo[5,1-a]isoindol-5-yl)ethyl)piperidin-1-yl)-2-phenoxyethyl-1-one] | 93 | 85 | 154 | 55 |
| CN(CC(=O)N1CCC(C(O)CC2c3ccccc3-c3cncn32)CC1)c1ccccc1 (stereo not drawn) [Example 59, 1-(4-(1-hydroxy-2-(5H-imidazo[5,1-a]isoindol-5-yl)ethyl)piperidin-1-yl)-2-(methyl(phenyl)amino)ethyl-1-one] | 92 | 83 | 169 | 159 |
| CN(CC(=O)N1CCC(C(O)CC2c3ccccc3-c3cncn32)CC1)c1ccc([N+](=O)[O-])cc1 (stereo not drawn) [Example 105, 1-(4-(1-hydroxy-2-(5H-imidazo[5,1-a]isoindol-5-yl)ethyl)piperidin-1-yl)-2-(methyl(4-nitrophenyl)atnino)ethyl-1-one] | 91 | 84 | – | – |
| O=C(COc1ccc2[nH]ccc2c1)N1CCC(C(O)CC2c3ccccc3-c3cncn32)CC1 (stereo not drawn) [Example 26, 2-((1H-indol-5-yl)oxy)-1-(4-(1-hydroxy-2-(5H-imidazo[5,1-a]isoindol-5-yl)ethyl)piperidin-1-yl)-ethyl-1-one] | 92 | 89 | – | – |

More lines, now with the values ahead:

| inhibition at 1 µM [1] [%] | inhibition at 0.2 µM [2] [%] | EC50 [1] [nM] | IC50 [2] [nM] | Compound |
| --- | --- | --- | --- | --- |
| 83 | 81 | – | – | CN(CC(=O)N1CCC(C(O)CC2c3ccccc3-c3cncn32)CC1)c1ccc(C#N)cc1 (stereo not drawn) [Example 98] |
| 93 | 85 | – | – | O=C(COc1ccc2[nH]c3ccccc3c2c1)N1CCC(C(O)CC2c3ccccc3-c3cncn32)CC1 (stereo not drawn) [Example 17, 2-((9H-carbazol-3-yl)oxy)-1-(4-(1-hydroxy-2-(5H-imidazo[5,1-a]isoindol-5-yl)ethyl)piperidin-1-yl)ethyl-1-one] |
| 99 | 89 | – | – | O=C(COc1cccc(C(F)(F)F)c1)N1CCC(C(O)CC2c3ccccc3-c3cncn32)CC1 (stereo not drawn) [Example 48, 2-(3-trifluoromethylphenoxy)-1-(4-(1-hydroxy-2-(5H-imidazo[5,1-a]isoindol-5-yl)ethyl)piperidin-1-yl)ethyl-1-one] |
| 77 | 80 | – | – | O=C(COc1ccc2ncccc2c1)N1CCC(C(O)CC2c3ccccc3-c3cncn32)CC1 (stereo not drawn) [Example 23, 1-(4-(1-hydroxy-2-(5H-imidazo[5,1-a]isoindol-5-yl)ethyl)piperidin-1-yl)-2-(quinolin-6-yloxy)ethyl-1-one] |
| 98 | 87 | – | – | CN(CC(=O)N1CCC(C(O)CC2c3ccccc3-c3cncn32)CC1)c1ccc(F)c(Cl)c1 (stereo not drawn) [Example 68, 2-((3-chloro-4-fluorophenyl)(methyl)amino)-1-(4-(1-hydroxy-2-(5H-imidazo[5,1-a]isoindol-5-yl)ethyl)piperidin-1-yl)ethyl-1-one] |
| 85 | 68 | – | – | CN(CC(=O)N1CCC(C(O)CC2c3ccccc3-c3cncn32)CC1)c1ccc(C(F)(F)F)cc1 (stereo not drawn) [Example 89, 1-(4-(1-hydroxy-2-(5H-imidazo[5,1-a]isoindol-5-yl)ethyl)piperidin-1-yl)-2-(methyl(4-trifluoromethylphenyl)amino)ethyl-1-one] |
| 91 | 73 | – | – | CN(CC(=O)N1CCC(C(O)CC2c3ccccc3-c3cncn32)CC1)c1ccc(F)cc1 (stereo not drawn) [Example 72, 2-((4-fluorophenyl)(methyl)amino)-1-(4-(1-hydroxy-2-(5H-imidazo[5,1-a]isoindol-5-yl)ethyl)piperidin-1-yl)ethyl-1-one] |
| 95 | 82 | – | – | Cc1ccc(N(C)CC(=O)N2CCC(C(O)CC3c4ccccc4-c4cncn43)CC2)cc1C (stereo not drawn) [Example 77, 2-((3,4-dimethylphenyl)(methyl)amino)-1-(4-(1-hydroxy-2-(5H-imidazo[5,1-a]isoindol-5-yl)ethyl)piperidin-1-yl)ethyl-1-one] |
| 98 | 84 | – | – | CN(CC(=O)N1CCC(C(O)CC2c3ccccc3-c3cncn32)CC1)c1cccc(C(F)(F)F)c1 (stereo not drawn) [Example 94, 1-(4-(1-hydroxy-2-(5H-imidazo[5,1-a]isoindol-5-yl)ethyl)piperidin-1-yl)-2-(methyl(3-trifluoromethylphenyl)amino)ethyl-1-one] |
| 68 | – | – | – | CN(CC(=O)N1CCC(C(O)CC2c3ccccc3-c3cncn32)CC1)c1ccccn1 (stereo not drawn) [Example 109, 1-(4-(1-hydroxy-2-(5H-imidazo[5,1-a]isoindol-5-yl)ethyl)piperidin-1-yl)-2-(methyl(pyridin-2-yl)amino)ethyl-1-one] |
